Results reported in patent US10538522B2, “Brassinosteroid mimetics” (The Regents of the University of California, priority 2015, dated 2020).

Key:
[1] = system: bri1-6 mutant seedling; assay: Growth of mutant seedling defective in brassinosteroid receptor BRI1 (FIG. 4); assay type: in vivo
[2] = system: Arabidopsis seedlings; assay: Hypocotyl length / plant height of seedlings treated with brassinosteroid mimetic (FIG. 1, FIG. 2); assay type: in vivo; details: versus untreated plants
Method: (A) Arabidopsis seedlings were grown for 7 days in light in the presence of increasing concentrations of a brassinosteroid mimetic of the disclosure. (B) a photo of seedlings grown at 0 and 20 μM of brassinosteroid mimetic.
The brassinosteroid mimetics of the disclosure were tested and shown to block ethylene response by hyperactivating brassinosteroid signaling. The application of any one of the brassinosteroid mimetics of the disclosure, which are all closely related, results in massive increases in plant size. […] Additionally, reduction of internal concentrations of brassinosteroids by inhibition of brassinosteroid biosynthesis reduces the effects of the mimetic on growth. In FIG. 1, one can see the promotive effects of F1874-0108 (inset), a brassinosteroid mimetic of the disclosure, on plant height, with chemical treated plants being almost 100% taller than untreated plants. Hyperactivation of brassinosteroid signaling represents an effective means to increase plant biomass and increase the capability of plants with regard to disease resistance and other brassinosteroid regulated phenomena.

[3] = system: seedlings treated with an inhibitor of BR synthesis (brassinazole); assay: Hypocotyl length of seedlings with brassinosteroid synthesis inhibited by brassinazole (FIG. 1, FIG. 3); assay type: in vivo, Arabidopsis
Method: Seedlings were treated with an inhibitor of BR synthesis (brassinazole; (BZ)). […] This is not consistent with what is seen for Bikinin, which is a constitutive activator of BR signaling and would be independent of BR synthesis (i.e. treatment with BZ would not result in inhibition of hypocotyl length in the presence of BZ).
In FIG. 1, brassinosteroid production was limited by addition of brassinazole (BZ, which is a chemical inhibitor of brassinosteroid biosynthesis). […] In stark contrast, addition of brassinolide plus mimetic severely curtails this burst in growth because mimetic prevents the full inhibition of BIN2.

O=C(O)CCC(=O)Nc1ccc(Br)cn1 [Bikinin]
activation of BR pathway / hypocotyl growth [1]: promotion of long hypocotyls independent of BR

CCOC(=O)CSc1ncnc2c1cnn2-c1ccccc1 [F1874-0108]
plant height, chemical treated plants taller than untreated plants [2]: ~100% | seedling length versus BZ treated only ([3]; BZ treated, no exogenous brassinolide added): substantially longer

CC(O)(c1ccccc1)C(Cc1ccc(Cl)cc1)n1cncn1 (centres unmarked) [brassinazole]
hypocotyl length ([3]; FIG. 3, BZ alone): shortening of the hypocotyls

CC(C)[C@H](C)[C@@H](O)[C@H](O)[C@@H](C)[C@H]1CC[C@H]2[C@@H]3COC(=O)[C@H]4C[C@H](O)[C@H](O)C[C@]4(C)[C@H]3CC[C@]12C [brassinolide]
increase in length of BZ seedlings ([3]; BZ treated, exogenous brassinolide added back): ~400%
